The source made the active and inactive calls. The rule behind the calls is not given here.
What was measured:
HepG2 = assay: cells; details: Homo sapiens, HepG2, 48 h
MCF7 = assay: cells; details: Homo sapiens, MCF7, 48 h
K562 [1] = assay: cells; details: Homo sapiens, K562, 48 h
[2] = target: Vascular endothelial growth factor receptor 2 (Homo sapiens) (UniProt P35968); assay: Inhibition of VEGFR2 at 50 uM after 1 hr
[3] = target: Proto-oncogene tyrosine-protein kinase Src (Homo sapiens) (UniProt P12931); assay: Inhibition of SRC at 50 uM after 1 hr
Sequence of Proto-oncogene tyrosine-protein kinase Src (Homo sapiens) (P12931 2-536 limits assumed): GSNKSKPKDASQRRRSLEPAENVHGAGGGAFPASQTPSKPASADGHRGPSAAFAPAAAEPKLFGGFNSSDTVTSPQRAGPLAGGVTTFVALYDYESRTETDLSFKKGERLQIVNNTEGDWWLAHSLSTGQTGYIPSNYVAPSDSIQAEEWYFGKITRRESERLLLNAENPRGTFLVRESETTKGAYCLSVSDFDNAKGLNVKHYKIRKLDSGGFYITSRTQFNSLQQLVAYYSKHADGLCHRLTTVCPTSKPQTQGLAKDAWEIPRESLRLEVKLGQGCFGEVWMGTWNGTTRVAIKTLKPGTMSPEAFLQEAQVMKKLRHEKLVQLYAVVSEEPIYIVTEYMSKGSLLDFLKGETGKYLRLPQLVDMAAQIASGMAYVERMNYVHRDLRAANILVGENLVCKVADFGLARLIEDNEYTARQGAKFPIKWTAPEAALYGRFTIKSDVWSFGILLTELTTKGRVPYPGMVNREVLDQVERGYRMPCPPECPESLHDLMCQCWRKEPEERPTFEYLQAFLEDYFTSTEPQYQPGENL

Malme-3M = assay: cells; details: Homo sapiens
Description: Growth inhibition of MALME-3M cells

SK-MEL-28 = assay: Growth inhibition of SK-MEL-28 cells; details: Homo sapiens
[4] = Growth inhibition of A375M cells; details: Homo sapiens
K562 [5] = assay: Ratio of imatinib IC50 to compound IC50 for human K562 cells after 48 hrs by MTT assay; type: functional
[6] = target: Vascular endothelial growth factor receptor 2 (Homo sapiens) (UniProt P35968); assay: Inhibition of VEGFR2 in human K562 cells assessed as reduction in activated ERK1/2 levels at 10 uM by Western blot analysis; type: cell-based
[7] = target: DNA topoisomerase 2-alpha (Homo sapiens) (UniProt P11388); assay: Inhibition of human topoisomerase 2 at 1 to 50 uM for 40 mins using ethidium bromide by decatenation assay
Sequence of DNA topoisomerase 2-alpha (Homo sapiens) (P11388 whole entry): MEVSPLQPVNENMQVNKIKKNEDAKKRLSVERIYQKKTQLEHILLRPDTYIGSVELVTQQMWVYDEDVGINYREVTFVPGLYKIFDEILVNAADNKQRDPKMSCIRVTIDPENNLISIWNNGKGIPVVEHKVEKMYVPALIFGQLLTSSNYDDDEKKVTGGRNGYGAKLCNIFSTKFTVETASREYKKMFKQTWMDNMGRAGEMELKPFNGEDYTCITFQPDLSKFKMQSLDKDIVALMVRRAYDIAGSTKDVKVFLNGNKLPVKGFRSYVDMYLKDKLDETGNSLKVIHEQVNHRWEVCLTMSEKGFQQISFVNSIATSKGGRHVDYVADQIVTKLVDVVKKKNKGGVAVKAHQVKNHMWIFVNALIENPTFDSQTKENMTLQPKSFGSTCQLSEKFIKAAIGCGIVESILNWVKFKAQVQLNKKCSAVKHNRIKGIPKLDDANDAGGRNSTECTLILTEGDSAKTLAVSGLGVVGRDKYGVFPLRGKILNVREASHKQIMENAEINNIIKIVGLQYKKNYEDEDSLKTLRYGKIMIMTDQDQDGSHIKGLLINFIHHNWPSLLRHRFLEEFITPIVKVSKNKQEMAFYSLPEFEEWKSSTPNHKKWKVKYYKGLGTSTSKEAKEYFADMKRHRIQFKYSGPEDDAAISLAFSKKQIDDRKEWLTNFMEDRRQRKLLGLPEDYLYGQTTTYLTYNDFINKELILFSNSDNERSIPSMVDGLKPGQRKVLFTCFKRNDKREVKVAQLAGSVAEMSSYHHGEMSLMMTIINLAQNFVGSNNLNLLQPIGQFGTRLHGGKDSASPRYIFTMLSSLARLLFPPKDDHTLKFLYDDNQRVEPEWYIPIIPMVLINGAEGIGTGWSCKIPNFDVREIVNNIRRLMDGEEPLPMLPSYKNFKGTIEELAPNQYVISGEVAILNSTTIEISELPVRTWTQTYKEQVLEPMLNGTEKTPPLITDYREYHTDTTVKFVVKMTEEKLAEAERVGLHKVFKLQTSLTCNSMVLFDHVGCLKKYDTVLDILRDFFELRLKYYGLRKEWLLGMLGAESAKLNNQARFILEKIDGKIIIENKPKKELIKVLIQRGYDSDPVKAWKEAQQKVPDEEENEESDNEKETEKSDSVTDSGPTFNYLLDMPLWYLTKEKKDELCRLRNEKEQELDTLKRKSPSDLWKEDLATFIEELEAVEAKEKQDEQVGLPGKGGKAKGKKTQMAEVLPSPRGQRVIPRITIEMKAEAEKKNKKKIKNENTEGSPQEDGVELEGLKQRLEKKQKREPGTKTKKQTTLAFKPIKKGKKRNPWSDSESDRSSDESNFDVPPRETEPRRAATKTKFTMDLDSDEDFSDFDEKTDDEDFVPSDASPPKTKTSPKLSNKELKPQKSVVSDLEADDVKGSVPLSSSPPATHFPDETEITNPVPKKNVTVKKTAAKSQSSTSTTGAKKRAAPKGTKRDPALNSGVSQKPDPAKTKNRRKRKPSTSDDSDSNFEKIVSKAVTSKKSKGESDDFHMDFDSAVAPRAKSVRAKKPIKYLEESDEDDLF

[8] = target: Proto-oncogene tyrosine-protein kinase Src (Homo sapiens) (UniProt P12931); assay: Inhibition of SRC in human K562 cells assessed as reduction in activated ERK1/2 levels at 10 uM by Western blot analysis; type: cell-based; details: TDE = time-dependent effect

Sequence of Vascular endothelial growth factor receptor 2 (Homo sapiens) (P35968 whole entry): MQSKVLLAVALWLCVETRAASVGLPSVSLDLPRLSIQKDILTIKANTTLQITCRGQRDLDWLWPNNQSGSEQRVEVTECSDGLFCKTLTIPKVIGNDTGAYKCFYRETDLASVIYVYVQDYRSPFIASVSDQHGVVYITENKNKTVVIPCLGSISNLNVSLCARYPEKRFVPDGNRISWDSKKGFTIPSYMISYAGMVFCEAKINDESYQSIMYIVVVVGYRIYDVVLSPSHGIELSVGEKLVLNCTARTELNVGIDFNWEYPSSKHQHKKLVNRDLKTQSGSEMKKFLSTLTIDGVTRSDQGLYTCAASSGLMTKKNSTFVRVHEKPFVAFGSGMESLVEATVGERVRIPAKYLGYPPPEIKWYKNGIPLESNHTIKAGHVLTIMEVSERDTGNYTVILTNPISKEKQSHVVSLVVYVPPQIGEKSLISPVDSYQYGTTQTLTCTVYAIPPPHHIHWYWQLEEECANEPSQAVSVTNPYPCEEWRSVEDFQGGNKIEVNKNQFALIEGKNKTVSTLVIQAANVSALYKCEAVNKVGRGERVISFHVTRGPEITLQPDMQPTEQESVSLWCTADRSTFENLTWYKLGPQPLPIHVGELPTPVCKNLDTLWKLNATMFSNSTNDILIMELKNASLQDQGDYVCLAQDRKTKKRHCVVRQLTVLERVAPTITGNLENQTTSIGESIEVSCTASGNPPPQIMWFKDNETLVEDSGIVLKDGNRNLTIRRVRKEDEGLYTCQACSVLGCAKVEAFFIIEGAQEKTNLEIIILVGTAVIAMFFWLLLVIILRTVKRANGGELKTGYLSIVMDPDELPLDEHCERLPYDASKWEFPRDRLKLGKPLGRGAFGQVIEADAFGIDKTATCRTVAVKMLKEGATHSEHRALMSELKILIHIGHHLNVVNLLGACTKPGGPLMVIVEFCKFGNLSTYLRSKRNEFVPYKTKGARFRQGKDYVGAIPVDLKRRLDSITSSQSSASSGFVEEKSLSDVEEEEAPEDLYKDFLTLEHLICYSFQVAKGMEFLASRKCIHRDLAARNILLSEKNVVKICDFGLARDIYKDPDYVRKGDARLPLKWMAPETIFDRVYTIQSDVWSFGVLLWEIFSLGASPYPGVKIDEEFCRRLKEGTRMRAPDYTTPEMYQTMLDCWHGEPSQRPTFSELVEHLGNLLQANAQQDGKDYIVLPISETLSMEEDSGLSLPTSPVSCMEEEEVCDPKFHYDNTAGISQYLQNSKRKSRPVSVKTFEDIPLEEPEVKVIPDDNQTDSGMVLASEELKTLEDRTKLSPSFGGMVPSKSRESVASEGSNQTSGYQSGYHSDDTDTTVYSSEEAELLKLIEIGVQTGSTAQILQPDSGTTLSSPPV

SMILES	IC50 (HepG2) [µM]	IC50 (MCF7) [µM]	IC50 (K562 [1]) [µM]	further results
COc1ccc2nc3cc(Cl)ccc3c(Nc3ccccc3O)c2c1	11.4	> 50	4.9	
Cc1ccc(NC(=O)c2ccc(CN3CCN(C)CC3)cc2)cc1Nc1nccc(-c2cccnc2)n1 [IMATINIB]			5.4	
CCOc1ccc(Nc2c3ccc(Cl)cc3nc3ccc(OC)cc23)cc1	7.4	41.6	3.2	
Cn1c(Nc2ccc(C(F)(F)F)cc2)nc2cc(Oc3ccnc(-c4ncc(C(F)(F)F)[nH]4)c3)ccc21 [RAF-265]				IC50 (Malme-3M): 0.14 µM; IC50 (SK-MEL-28): 0.14 µM; IC50 [4]: 0.14 µM
COc1ccc(Nc2c3ccc(Cl)cc3nc3ccc(OC)cc23)cc1	6.3	> 50	2.2	Ratio IC50 (K562 [5]): 2.5
CN[C@@H]1C[C@H]2O[C@@](C)([C@@H]1OC)n1c3ccccc3c3c4c(c5c6ccccc6n2c5c31)C(=O)NC4				inhibition [3]: 99.4%
COc1ccc2nc3cc(Cl)ccc3c(Nc3ccccc3OC)c2c1	> 50	> 50	5.4	
COc1ccc2nc3cc(Cl)ccc3c(Nc3ccccc3F)c2c1	46.1	> 50	13.5	
COc1cc2c(c(OC)c1OC)-c1ccc(OC)c(=O)cc1[C@@H](NC(C)=O)CC2 [COLCHICINE]	1.9	1.9		
COc1ccc2nc3cc(Cl)ccc3c(Nc3cccc(NC(C)=O)c3)c2c1	36.8	> 50	21.3	
COc1ccc2nc3cc(Cl)ccc3c(Nc3ccccc3Cl)c2c1	30.2	> 50	23.8	
COc1ccc2nc3cc(Cl)ccc3c(NCCN)c2c1	6	9.3	7	
CCOc1ccccc1Nc1c2ccc(Cl)cc2nc2ccc(OC)cc12	27.9	> 50	9	

More lines, in order of falling IC50 (K562 [1]), values ahead:

IC50 (HepG2) [µM]	IC50 (MCF7) [µM]	IC50 (K562 [1]) [µM]	SMILES	further results
16.8	> 50	31	COc1ccc2nc3cc(Cl)ccc3c(Nc3cc(OC)c(OC)c(OC)c3)c2c1	
> 50	> 50	18.7	COc1ccc2nc3cc(Cl)ccc3c(Nc3ccc(C(=O)O)c(O)c3)c2c1	inhibition [2]: 5.4%; inhibition [7]: inactive; inhibition [3]: 2.8%
32.7	17.6	12	COc1ccc2nc3cc(Cl)ccc3c(Nc3cccc(N)n3)c2c1	inhibition [2]: 3.77%; inhibition [3]: 6.12%
10.6	23.2	11.7	COc1ccc2nc3cc(Cl)ccc3c(Nc3cccnc3N)c2c1	
> 50	> 50	10.8	COc1ccc2nc3cc(Cl)ccc3c(Nc3ccc(C(F)(F)F)cc3)c2c1	
10.2	18.9	9.7	COc1ccc2nc3cc(Cl)ccc3c(Nc3ccc(OC(F)(F)F)cc3)c2c1	
11	23.2	7.7	COc1ccc2nc3cc(Cl)ccc3c(Nc3ccc(N)cc3)c2c1	
4.1	> 50	7.3	COc1ccc2nc3cc(Cl)ccc3c(Nc3ccncc3)c2c1	
8.8	19.9	5.5	COc1ccc2nc3cc(Cl)ccc3c(Nc3ccc(C)cc3)c2c1	
9.6	13.2	5.5	COc1ccc2nc3cc(Cl)ccc3c(Nc3cccc(O)c3)c2c1	
4.2	23.8	5	COc1ccc2nc3cc(Cl)ccc3c(NCc3ccccc3OC)c2c1	inhibition [6]: Active; inhibition [2]: 44%; inhibition [7]: inactive; inhibition [3]: 8.02%; inhibition [8]: tde
14.9	> 50	2.7	COc1cccc(Nc2c3ccc(Cl)cc3nc3ccc(OC)cc23)c1	

Source: ChEMBL document CHEMBL1811850, “Exploration of acridine scaffold as a potentially interesting scaffold for discovering novel multi-target VEGFR-2 and Src kinase inhibitors” (Bioorg Med Chem, 2011)
